Entries after “also recorded” stand apart in the source; their conditions may differ.
What was measured:
[1] = system: Jurkat T-cells; assay: Microphotographs of treated Jurkat T-cells (FIG. 5); assay type: cell-based; conditions: auranofin at a clinically-acceptable concentration added to BSO and cisplatin (FIG. 5)
From the text: FIG. 5 is microphotographs of Jurkat T-cells treated with different concentrations of cisplatin, auranofin or buthionine sulfoximine (BSO).

[2] = system: Supt-1 T-cells; assay: Microphotographs of treated Supt-1 T-cells (FIG. 3); assay type: cell-based; conditions: 0.25 μM auranofin with submicromolar BSO (FIG. 3)
From the text: FIG. 3 is microphotographs of Supt-1 T-cells treated with different concentrations of auranofin or buthionine sulfoximine.

[3] = system: Supt-1 T-cells; assay: Viability of Supt-1 T-cells (MTS assay, FIGS. 2 and 6); assay type: cell-based
Procedure: FIG. 2 is a graph showing the viability of Supt-1 T-cells treated with different concentrations of auranofin (AU) or buthionine sulfoximine (BSO). Viability was measured 72 hours after treatment with the drugs at the indicated concentrations with the MTS assay. Absorbance values were normalized over untreated controls and expressed as percentage. BSO=buthionine sulfoximine. Concentrations are expressed in μM. Data are expressed as mean t SEM and were analysed by the Turkey posttest following One Way ANOVA. *P<0.05; **P<0.01 ***P<0.001; ****P<0.0001. NS: non-significant. The synergistic index (SI) is expressed where significant differences exist in comparison with the single drug treatments.
FIG. 6 is a graph showing the viability of Supt-1 T-cells treated with different concentrations of cisplatin or buthionine sulfoximine (BSO). Viability was measured 72 hours after treatment with the drugs at the indicated concentrations with the MTS assay. Absorbance values were normalized over untreated controls and expressed as percentage. BSO=buthionine sulfoximine. Concentrations are expressed in μM; Asterisks show the significant differences [*q<0.05; **q<0.01; q is the P value corrected for multiple comparisons by controlling the False Discovery Rate (threshold for significance=q=0.05)]. NS: non-significant. The synergistic index (SI) is expressed where significant differences exist in comparison with the single drug treatments.
(§1) In-vitro activity on activated CD4^+ T-cells and leukemia/lymphoma Methods. Resting CD4^+ T-cells, cultured T-cell leukemic Jurkat cells and Sup-T1 cells were left untreated or incubated for 24-72 hours with various concentrations of auranofin and/or buthionine sulfoximine (BSO), or chloroquine (only CD4^+ T-cells) or cisplatin (only Jurkat and Supt-T1 cells) CD4^+ T-cells were then activated by adding phytohemagglutinin (2 μg/mL). Alternatively, CD4^+ T-cells were first activated with anti-CD3/anti-CD28 beads and, after 72 hours, were left untreated or were incubated with auranofin and/or buthionine sulfoximine (BSO), or chloroquine. Cell viability was determined 24-72 hours post-activation with an MTT assay (CellTiter 96@ Non-Radioactive Cell Proliferation Assay) or MTS assay (CellTiter 960 AQueous One Solution Cell Proliferation Assay System; Promega). For the assay, 300×10^5 cells were re-suspended in 100 μL of medium and transferred to a 96-well plate. Cells were then incubated with 20 μL of a substrate solution (One Solution Reagent) for 3-4 hours in a CO2 (5%) incubator at 37° C. For the MTT assay, 100 μL of a Solubilization/Stop Solution were used to stop the reaction. Medium-only containing wells were included to serve as a blank control. Absorbance levels were recorded at 490 nm (MTS) or 570 nm (MTT) and, after subtraction of the blank, absorbance values were expressed as percentage of controls.
(§2) Results. The results from the new dosage combinations were compared to the untreated cells as well as the cells treated with single drugs or “classical” dosages, in a multiple comparison analysis. Thus, the statistical significances shown are also significant compared to the untreated cells.

[4] = system: murine mammary carcinoma cell line; conditions: auranofin/submicromolar BSO combination; cited from earlier work
[5] = system: activated CD4^+ T-cells; assay: Viability of activated primary CD4+ T-cells (MTT assay, FIG. 1); assay type: cell-based
Procedure: FIG. 1 is a graph showing the viability of activated primary CD4^+ T-cells treated with different concentrations of auranofin and buthionine sulfoximine (BSO), measured with the MTT assay. The cells were pre-incubated with the drugs for 24 hours and then activated with phytohemagglutinin (PHA) and assayed for viability 72 hours post activation (A) or the cells were activated with αCD3-αCD28 beads and then treated for 48 h with different combinations of auranofin and BSO (B). In (A), the effects of chloroquine are shown as a matter of comparison with a drug adopted in the clinic to limit immune hyperactivation. All concentrations are expressed in μM. In-vitro activity on activated CD4^+ T-cells and leukemia/lymphoma Methods. Resting CD4^+ T-cells, cultured T-cell leukemic Jurkat cells and Sup-T1 cells were left untreated or incubated for 24-72 hours with various concentrations of auranofin and/or buthionine sulfoximine (BSO), or chloroquine (only CD4^+ T-cells) or cisplatin (only Jurkat and Supt-T1 cells) CD4^+ T-cells were then activated by adding phytohemagglutinin (2 μg/mL). Alternatively, CD4^+ T-cells were first activated with anti-CD3/anti-CD28 beads and, after 72 hours, were left untreated or were incubated with auranofin and/or buthionine sulfoximine (BSO), or chloroquine. Cell viability was determined 24-72 hours post-activation with an MTT assay (CellTiter 96@ Non-Radioactive Cell Proliferation Assay) or MTS assay (CellTiter 960 AQueous One Solution Cell Proliferation Assay System; Promega). For the assay, 300×10^5 cells were re-suspended in 100 μL of medium and transferred to a 96-well plate. Cells were then incubated with 20 μL of a substrate solution (One Solution Reagent) for 3-4 hours in a CO2 (5%) incubator at 37° C. For the MTT assay, 100 μL of a Solubilization/Stop Solution were used to stop the reaction. Medium-only containing wells were included to serve as a blank control. Absorbance levels were recorded at 490 nm (MTS) or 570 nm (MTT) and, after subtraction of the blank, absorbance values were expressed as percentage of controls. Results. The results from the new dosage combinations were compared to the untreated cells as well as the cells treated with single drugs or “classical” dosages, in a multiple comparison analysis. Thus, the statistical significances shown are also significant compared to the untreated cells.

[6] = system: Jurkat T-cells; assay: Viability of Jurkat T-cells (MTT assay, FIG. 4); assay type: cell-based
Procedure: FIG. 4 is a graph showing the viability of Jurkat T-cells treated with different concentrations of cisplatin, auranofin and/or buthionine sulfoximine (BSO). Viability was measured 48 hours after treatment with the drugs at the indicated concentrations with the MTT assay. Absorbance values were normalized over untreated controls and expressed as percentage. Concentrations are expressed in μM. Data are expressed as mean±SEM and were. Asterisks show the significant differences [*q<0.05; *q<0.01; q is the P value corrected for multiple comparisons by controlling the False Discovery Rate (threshold for significance=q=0.05)]. NS: non-significant. The synergistic index (SI) is expressed where significant differences exist in comparison with the single drug treatments.
as §1, §2

[7] = BSO 500 mg/kg intraperitoneally; cisplatin 6 or 9 mg/kg; cited from earlier work
[8] = rats; cited from earlier work
[9] = system: MKN-45 cells; conditions: BSO 5, 10 and 25 mM; cisplatin 0.01-1 μg/ml; cited from earlier work
[10] = system: SIVmac251; conditions: auranofin 0.4 mg/kg/day and BSO 450 mg/kg in combination with ART; cited from earlier work
[11] = 5 mmol/kg (equivalent to 111.5 mg/kg) BSO 12 hours before the chemotherapeutic agent; cited from earlier work
[12] = system: MKN-28 cells; conditions: BSO 5, 10 and 25 mM; cisplatin 0.1-3.0 μg/ml; cited from earlier work
[13] = system: glutathione levels; conditions: Malaker et al. 1994; cited from earlier work
[14] = system: HIV; assay: Theoretical clinical example, HIV patient, with computational simulation of the viral reservoir; set-up: species or system human; conditions: auranofin 6 mg bid six months plus low-dose BSO (three one-week cycles, 0.08 g orally every 6 hours) with ART; baseline 22 copies/10^6 CD4^+ T-cells
From the text: A simulation of the viral load (RNA copies/ml) and viral reservoir (L cells) dynamics in a human model is provided. The trend of productively infected cells (T*) is also shown. The simulation is based on the five differential equations model in Rong and Perelson (2009). The peaks in the viral load correspond to the periods of activation of latently infected CD4+ T-cells. For starting data see Rong and Perelson (2009). Different proliferation rates (p) are shown (day^−1), corresponding to different drug treatments, or absence of any treatment. The bottom three panels depict a scenario without the drugs, with p=1.4 day^−1. The effects of BSO in combination with auranofin at plasma molar ratios (BSO/auranofin) of 1:0.25 (top three panels), 1:0.5 (second line of panels from top), 1:1 (third line of panels from top) are simulated. The plasma concentration of auranofin is […]. The activation function adopted to simulate lymphocyte encounter with antigens is illustrated in Rong and Perelson (2009).
The following is a theoretical example for a typical situation wherein the BSO is used at a reduced concentration, with a clinically-acceptable dosage of auranofin to treat a patient with an HIV diagnosis.
Patient received an HIV diagnosis in 2008. […]
The patient is subjected to quantification of viral DNA, the result of which is 22 copies/10^6 CD4^+ T-cells. […]

[15] = system: cellular GSH; conditions: 1.5 g/m^2 BSO at 12 hour intervals for six doses, alone or with 15 mg/m^2 melphalan; cited from earlier work
[16] = submicromolar BSO with cisplatin 10 μM

CC(=O)OC[C@H]1O[C@@H]([S-])[C@H](OC(C)=O)[C@@H](OC(C)=O)[C@@H]1OC(C)=O.CCP(CC)CC.[Au+] [auranofin]
cell morphology [1]: increased the aforementioned morphological alterations
cell morphology [2]: morphological alterations linked to poor lymphoblastic cell viability
synergism in terms of cell viability ([3]; only with 0.5 μM auranofin, with BSO (FIG. 2)): significant synergism

CCCCS(=N)(=O)CCC(N)C(=O)O (stereo not shown) [BSO, buthionine sulfoximine]
directly cytotoxic/anticancer effect [4]: not able to detect
effect on viability compared with clinically achievable concentrations of Chloroquine ([5]; BSO 2 μM with auranofin): superior
limitation of cell viability compared with classically-described BSO concentration (250 μM) ([5]; BSO 2 μM with auranofin): similar
effect with auranofin in limiting the viability of activated CD4^+ T-cells ([5]; BSO as low as 2 μM in combination with auranofin, pre-incubated (FIG. 1A) or treated concomitantly to activation (FIG. 1B)): synergistic effect
effects of BSO on viability at submicromolar concentrations ([5]; with auranofin, cells activated with αCD3-αCD28 beads, then treated 48 h (FIG. 1B)): still present
synergism of BSO and cisplatin ([6]; BSO (submicromolar) with cisplatin (10 μM), 48 h (FIG. 4)): Significant synergism; also recorded: true synergism
effect of auranofin and low concentrations of BSO on the anti-neoplastic effect of cisplatin ([6]; BSO with auranofin and cisplatin (FIGS. 4 and 5)): increase the anti-neoplastic effect of cisplatin
effect of BSO on susceptibility to cisplatin ([6]; FIG. 4): chemosensitizing effect
inhibition of cellular proliferation compared with BSO 250 μM [6, 16]: no statistical difference
effect of BSO pre-treatment on antitumor effects of cisplatin [7]: enhanced
effect on nephrotoxicity of cisplatin [8]: reduce the nephrotoxicity
effect of BSO pre-treatment on antitumor activity of cisplatin [9]: increased the antitumor activity of cisplatin
disease outcome following suspension of all therapies [10]: functional cure
effect on anti-cancer effects of cyclophosphamide, cisplatin or bleomycin [11]: increased the anti-cancer effects
effect of BSO pre-treatment on antitumor activity of cisplatin [12]: increased the antitumor activity of cisplatin
BSO concentration required to achieve a 90% decrease in glutathione levels [13]: 6 µM
viral reservoir after treatment [14]: < 10 copies of viral DNA/million cells
difference between BSO only and the same BSO concentration in the presence of auranofin ([3]; BSO 250 μM): no significant difference
effect on cisplatin-induced cell death ([3]; BSO 250 μM with cisplatin): increased cisplatin-induced cell death
synergistic index ([3]; BSO 250 μM with cisplatin (FIG. 6), effect antagonistic): > 1.1
effect of BSO only ([3]; BSO 250 μM, no auranofin): cytotoxic effect
effect of BSO on susceptibility to cisplatin ([3]; FIG. 6): chemosensitizing effect
viability ([3]; auranofin and BSO 250 μM): low viability
difference between combined drug treatment and the single drugs alone ([3]; submicromolar BSO with auranofin, e.g. auranofin 0.5+BSO 0.75 μM): extremely significant difference
inhibition of cellular proliferation compared with BSO 250 μM [3, 16]: no statistical difference
synergism of BSO and cisplatin ([3]; submicromolar BSO with cisplatin 10 μM (FIG. 6)): true synergism
anticancer effect ([3]; submicromolar BSO with clinically-achievable auranofin concentrations (FIGS. 2 and 3)): direct anticancer effect
cellular GSH [15]: Marked depletion

Source: patent US12150925B2, “Buthionine sulfoximine and a metallodrug for the treatment of cancer, HIV or a rheumatic disease” (Istituto Superiore di Sanità, priority 2017, dated 2024)
